From ChEMBL document CHEMBL6074624, “FDA-approved small molecule kinase inhibitors for cancer treatment (2001-2015): Medical indication, structural optimization, and binding mode Part I” (Bioorg Med Chem, 2024) come the findings set out here.

≈ marks a conversion by molar mass, not a printed value.

The subject of one series is ACHN. Put plainly: Antiproliferative activity against human ACHN cells assessed as reduction in cell viability measured after 48 hrs by SRB assay. Type of series: functional, cell-based.
The test system of series [1] is HT-29. Put plainly: Antiproliferative activity against human HT-29 cells assessed as reduction in cell viability after 72 hrs by MTS assay. The note with it: HT-29, 72 h. Type of series: functional, cell-based.
The target in series [2] is Proto-oncogene tyrosine-protein kinase Src (Homo sapiens, UniProt P12931).
For another series, the system named is K562. The experiment in a line: Antiproliferative activity against human K562 cells assessed as reduction in cell growth. It is filed as functional, cell-based.
Series [3] deals with Hepatocyte growth factor receptor (Homo sapiens, UniProt P08581). Put plainly: Inhibition of c-Met (unknown origin).
Series [4] in a line: Anticancer activity against human NCI-H1975 cells harboring EGFR L858R/T790M mutant assessed as reduction in cell viability measured after 72 hrs by MTT assay. To be noted: NCI-H1975, 72 h. Type of series: functional, cell-based.
The subject of series [5] is PC-9. The experiment in a line: Antiproliferative activity against human PC-9 cells harboring EGFR L858R mutant assessed as reduction in cell viability measured after 72 hrs by SRB assay. The note with it: PC-9, 72 h. It is filed as functional, cell-based.
A further series concerns NCI-H1975. The experiment in a line: Growth inhibition of human NCI-H1975 cells. It is filed as functional.
For series [6], the system named is PC-9. The experiment in a line: Growth inhibition of human PC-9 cells. It is filed as functional.
A further series deals with Calu-3. Put plainly: Growth inhibition of human Calu-3 cells. Type of series: functional.
Series [7] can be described thus: Aqueous solubility of compound at pH 7.4 by LC-MS/MS analysis. It is filed as physicochemical. To be noted: buffer.
Series [8] has as its target Voltage-gated inwardly rectifying potassium channel KCNH2 (Homo sapiens, UniProt Q12809). Put plainly: Inhibition of hERG. It is filed as toxicity.
A short description of series [9]: Cytotoxicity against HUVEC cells assessed as reduction in cell viability after 72 hrs by CellTiter-Glo assay. Type of series: toxicity, cell-based. To be noted: human.
A short description of series [10]: AUC (0 to infinity) in mouse at 50 mg/kg, po. Type of series: ADME, organism-based. To be noted: in vivo.
Series [11] deals with Fibroblast growth factor receptor 1 (Homo sapiens, UniProt P11362). The experiment in a line: Inhibition of FGFR1 (unknown origin).
Series [12] is described as follows: Inhibition of Bcr-Abl T315Ialpha mutant (unknown origin). Also on record: species or system Homo sapiens.
The target of series [13] is T1, Vascular endothelial growth factor receptor 2 (Homo sapiens, UniProt P35968). Put plainly: Inhibition of VEGFR-2 (unknown origin) expressed in NIH3T3 cells assessed as reduction in VEGFA induced protein phosphorylation. Type of series: cell-based.
A short description of series [14]: Inhibition of PDGFR (unknown origin) in NIH3T3 cells. It is filed as cell-based, Homo sapiens.
For series [15], the system named is HT-29. Put plainly: Antitumor activity against human HT-29 cells xenografted in athymic nude mouse assessed as tumor growth inhibition at 25 mg/kg, ip administered once daily for 21 days relative to control. Type of series: functional. The note with it: HT-29, 504 h, time 21 day, read-out: TGI.
In series [16] the test system is HT-29. The experiment in a line: Antitumor activity against human HT-29 cells xenografted in athymic nude mouse assessed as tumor growth inhibition at 50 mg/kg, po administered once daily for 21 days relative to control. Type of series: functional. To be noted: HT-29, 504 h, time 21 day, read-out: TGI.
Series [17] has as its target T1, Vascular endothelial growth factor receptor 2. Put plainly: Binding affinity to VEGFR-2 (unknown origin) assessed as inhibition constant.
Series [18] can be described thus: Volume of distribution at steady state in Sprague-Dawley rat at 10 mg/kg, iv by LC-MS/MS analysis. Type of series: ADME, organism-based. To be noted: in vivo, read-out: Vdss.
Series [19] is described as follows: Clearance in Sprague-Dawley rat at 10 mg/kg, iv by LC-MS/MS analysis. Type of series: ADME, organism-based. The note with it: in vivo.
Series [20] can be described thus: Oral bioavailability in Sprague-Dawley rat at 10 mg/kg by LC-MS analysis. To be noted: in vivo. It is filed as ADME, organism-based.
For series [21], the target named is Vascular endothelial growth factor receptor 1 (Homo sapiens, UniProt P17948). The experiment in a line: Inhibition of VEGFR-1 (unknown origin).
For series [22], the system named is Calu-6. The experiment in a line: Antitumor activity against human Calu-6 cells xenografted in athymic nude mouse assessed as tumor growth inhibition at 100 mg/kg, po administered once daily for 21 days relative to control. It is filed as functional. The arrangement: scale not given: the % may be the effect or the level left. The note with it: time 21 day.
The nature of series [23]: Solubility in PBS at pH 7.4 incubated for 24 hrs by HPLC analysis. Type of series: physicochemical.
A short description of series [24]: Half life in rat at 5 mg/kg, po. It is filed as ADME, organism-based. To be noted: in vivo.
Series [25] is described as follows: Oral bioavailability in rat at 5 mg/kg measured for 24 hrs by LC-MS/MS analysis. To be noted: in vivo. Type of series: ADME, organism-based.
The subject of series [26] is Calu-6. The experiment in a line: Antitumor activity against human Calu-6 cells xenografted in athymic nude mouse assessed as tumor growth inhibition at 50 mg/kg, po administered once daily for 21 days relative to control. Type of series: functional. The note with it: Calu-6, 504 h, time 21 day, read-out: TGI.
Series [27] has as its system Calu-6. Put plainly: Antitumor activity against human Calu-6 cells xenografted in athymic nude mouse assessed as tumor growth inhibition at 25 mg/kg, po administered once daily for 21 days relative to control. It is filed as functional. The note with it: Calu-6, 504 h, time 21 day, read-out: TGI.
Series [28] concerns Calu-6. Put plainly: Antitumor activity against human Calu-6 cells xenografted in athymic nude mouse assessed as tumor growth inhibition at 12.5 mg/kg, po administered once daily for 21 days relative to control. It is filed as functional. To be noted: Calu-6, 504 h, time 21 day, read-out: TGI.
Series [29] has as its target T1, Vascular endothelial growth factor receptor 2. The experiment in a line: Inhibition of VEGFR2 (unknown origin) phosphorylation in HUVEC cells. Type of series: cell-based.
A short description of series [30]: Half life in Sprague-Dawley rat at 5 mg/kg, iv by LC-MS analysis. Type of series: ADME, organism-based. To be noted: in vivo.
Series [31] in a line: Oral bioavailability in Sprague-Dawley rat at 5 mg/kg. Type of series: ADME, organism-based. The note with it: in vivo.
Series [32] in a line: Half life in dog at 5 mg/kg, iv. It is filed as ADME, organism-based, Canis lupus familiaris. To be noted: in vivo.
Series [33] is described as follows: Oral bioavailability in dog at 5 mg/kg. It is filed as ADME, organism-based, Canis lupus familiaris. To be noted: in vivo.

T1 sequence (P35968 whole entry): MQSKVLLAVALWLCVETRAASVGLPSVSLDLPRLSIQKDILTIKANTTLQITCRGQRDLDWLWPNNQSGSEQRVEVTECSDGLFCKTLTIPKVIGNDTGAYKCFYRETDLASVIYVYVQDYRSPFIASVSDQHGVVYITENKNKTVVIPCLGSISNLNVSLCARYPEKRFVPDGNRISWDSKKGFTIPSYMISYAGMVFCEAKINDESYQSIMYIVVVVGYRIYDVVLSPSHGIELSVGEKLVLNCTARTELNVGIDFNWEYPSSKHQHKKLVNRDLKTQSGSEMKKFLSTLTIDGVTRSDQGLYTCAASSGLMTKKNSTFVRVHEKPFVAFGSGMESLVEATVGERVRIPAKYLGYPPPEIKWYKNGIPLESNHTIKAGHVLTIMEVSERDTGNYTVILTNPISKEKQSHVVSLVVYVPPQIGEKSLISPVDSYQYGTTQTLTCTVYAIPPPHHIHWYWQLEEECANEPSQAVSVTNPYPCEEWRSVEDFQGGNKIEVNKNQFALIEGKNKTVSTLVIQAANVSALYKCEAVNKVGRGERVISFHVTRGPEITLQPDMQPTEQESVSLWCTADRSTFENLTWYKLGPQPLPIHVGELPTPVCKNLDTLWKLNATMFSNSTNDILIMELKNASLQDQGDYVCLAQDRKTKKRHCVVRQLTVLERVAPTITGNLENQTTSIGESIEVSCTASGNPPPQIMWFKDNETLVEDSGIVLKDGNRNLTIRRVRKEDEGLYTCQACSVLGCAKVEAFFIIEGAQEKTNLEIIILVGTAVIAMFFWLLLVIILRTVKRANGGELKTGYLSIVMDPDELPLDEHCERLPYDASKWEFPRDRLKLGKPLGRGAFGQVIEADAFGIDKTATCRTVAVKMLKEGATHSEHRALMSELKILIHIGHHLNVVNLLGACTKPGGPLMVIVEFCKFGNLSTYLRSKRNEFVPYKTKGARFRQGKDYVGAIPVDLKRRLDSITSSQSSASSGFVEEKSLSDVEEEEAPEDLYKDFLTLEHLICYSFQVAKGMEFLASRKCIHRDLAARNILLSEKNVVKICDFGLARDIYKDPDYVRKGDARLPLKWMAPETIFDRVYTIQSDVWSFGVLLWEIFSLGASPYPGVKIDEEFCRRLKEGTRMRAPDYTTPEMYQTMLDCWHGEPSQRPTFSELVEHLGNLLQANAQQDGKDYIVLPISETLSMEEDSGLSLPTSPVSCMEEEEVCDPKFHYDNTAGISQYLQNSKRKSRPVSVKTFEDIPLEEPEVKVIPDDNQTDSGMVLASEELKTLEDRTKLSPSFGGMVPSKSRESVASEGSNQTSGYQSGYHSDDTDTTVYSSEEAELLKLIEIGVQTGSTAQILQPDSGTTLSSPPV
Sequence of Proto-oncogene tyrosine-protein kinase Src (P12931 2-536 limits assumed): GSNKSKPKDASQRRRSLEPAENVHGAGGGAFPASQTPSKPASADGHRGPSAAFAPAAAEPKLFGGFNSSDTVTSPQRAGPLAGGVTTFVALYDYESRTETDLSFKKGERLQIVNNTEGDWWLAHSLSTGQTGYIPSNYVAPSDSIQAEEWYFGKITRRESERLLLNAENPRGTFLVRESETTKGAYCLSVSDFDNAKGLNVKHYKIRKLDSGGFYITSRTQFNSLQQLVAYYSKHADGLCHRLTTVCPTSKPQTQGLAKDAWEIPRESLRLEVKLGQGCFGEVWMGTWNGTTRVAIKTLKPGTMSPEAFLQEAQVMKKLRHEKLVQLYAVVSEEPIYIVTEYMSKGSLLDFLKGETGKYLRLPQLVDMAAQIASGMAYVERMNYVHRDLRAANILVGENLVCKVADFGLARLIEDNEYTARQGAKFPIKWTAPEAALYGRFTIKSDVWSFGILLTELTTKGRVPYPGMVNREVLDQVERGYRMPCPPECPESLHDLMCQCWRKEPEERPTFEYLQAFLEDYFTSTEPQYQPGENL
Sequence of Vascular endothelial growth factor receptor 1 (P17948 whole entry): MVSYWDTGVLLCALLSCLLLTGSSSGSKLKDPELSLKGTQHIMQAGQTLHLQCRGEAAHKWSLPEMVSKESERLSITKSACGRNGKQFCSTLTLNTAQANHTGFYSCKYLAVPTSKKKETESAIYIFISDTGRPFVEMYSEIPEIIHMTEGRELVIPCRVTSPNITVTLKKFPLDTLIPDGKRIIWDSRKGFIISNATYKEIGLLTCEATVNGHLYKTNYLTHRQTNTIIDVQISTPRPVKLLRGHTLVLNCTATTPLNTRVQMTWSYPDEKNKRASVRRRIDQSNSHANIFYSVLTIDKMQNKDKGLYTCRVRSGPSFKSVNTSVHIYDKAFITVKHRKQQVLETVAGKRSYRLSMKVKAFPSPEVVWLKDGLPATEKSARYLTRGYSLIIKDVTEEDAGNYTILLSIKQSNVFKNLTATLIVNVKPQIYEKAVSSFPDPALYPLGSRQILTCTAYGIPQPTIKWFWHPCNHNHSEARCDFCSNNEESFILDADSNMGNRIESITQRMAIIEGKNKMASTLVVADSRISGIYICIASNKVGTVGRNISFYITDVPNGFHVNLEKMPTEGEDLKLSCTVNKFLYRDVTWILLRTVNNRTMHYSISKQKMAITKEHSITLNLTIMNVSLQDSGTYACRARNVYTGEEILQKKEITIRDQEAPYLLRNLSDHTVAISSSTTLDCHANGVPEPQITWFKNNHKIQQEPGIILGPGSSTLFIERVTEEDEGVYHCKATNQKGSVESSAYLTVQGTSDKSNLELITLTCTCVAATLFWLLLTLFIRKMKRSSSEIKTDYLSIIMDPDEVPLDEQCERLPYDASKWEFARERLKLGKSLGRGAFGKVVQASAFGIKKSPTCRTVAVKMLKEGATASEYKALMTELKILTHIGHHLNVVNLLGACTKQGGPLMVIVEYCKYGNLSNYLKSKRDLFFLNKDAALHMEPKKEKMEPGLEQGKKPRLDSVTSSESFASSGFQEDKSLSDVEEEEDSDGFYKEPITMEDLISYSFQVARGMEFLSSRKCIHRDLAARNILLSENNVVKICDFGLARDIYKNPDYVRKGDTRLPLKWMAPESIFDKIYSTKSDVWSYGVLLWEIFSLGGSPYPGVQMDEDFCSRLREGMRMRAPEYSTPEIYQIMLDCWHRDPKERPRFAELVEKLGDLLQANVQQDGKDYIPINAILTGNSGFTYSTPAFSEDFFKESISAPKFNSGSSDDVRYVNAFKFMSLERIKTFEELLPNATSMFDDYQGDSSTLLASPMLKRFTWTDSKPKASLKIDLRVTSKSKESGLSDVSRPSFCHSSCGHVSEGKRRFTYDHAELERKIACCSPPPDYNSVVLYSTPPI
Sequence of Fibroblast growth factor receptor 1 (P11362 whole entry): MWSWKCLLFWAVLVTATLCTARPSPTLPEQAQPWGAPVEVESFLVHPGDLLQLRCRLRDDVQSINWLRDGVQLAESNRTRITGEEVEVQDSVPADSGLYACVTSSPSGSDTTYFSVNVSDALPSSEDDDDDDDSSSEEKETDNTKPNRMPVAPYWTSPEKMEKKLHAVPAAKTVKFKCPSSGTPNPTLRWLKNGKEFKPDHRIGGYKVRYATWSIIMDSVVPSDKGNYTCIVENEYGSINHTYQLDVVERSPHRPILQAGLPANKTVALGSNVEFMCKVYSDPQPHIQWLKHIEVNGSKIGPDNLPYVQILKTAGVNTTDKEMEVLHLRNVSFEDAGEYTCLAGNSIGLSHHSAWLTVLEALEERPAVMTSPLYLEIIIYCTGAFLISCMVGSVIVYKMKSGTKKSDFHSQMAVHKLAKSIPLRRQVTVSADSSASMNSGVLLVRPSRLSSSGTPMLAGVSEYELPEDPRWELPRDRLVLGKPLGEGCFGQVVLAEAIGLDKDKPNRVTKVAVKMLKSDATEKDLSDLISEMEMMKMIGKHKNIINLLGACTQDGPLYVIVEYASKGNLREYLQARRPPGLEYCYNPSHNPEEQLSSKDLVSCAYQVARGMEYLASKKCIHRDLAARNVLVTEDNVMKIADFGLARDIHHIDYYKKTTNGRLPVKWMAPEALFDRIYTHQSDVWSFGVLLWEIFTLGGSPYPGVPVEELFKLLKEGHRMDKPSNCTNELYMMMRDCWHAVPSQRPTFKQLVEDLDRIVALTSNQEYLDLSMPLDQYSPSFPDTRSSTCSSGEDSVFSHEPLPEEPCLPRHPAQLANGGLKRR

Take `Cn1c(=O)cc(Nc2ccc(Cl)cc2)c2c(=O)n(-c3ccccc3)c(=O)n(-c3ccccc3)c21`: the IC50 in the series on ACHN came out at 4800 nM; in the series with HT-29 [1], 990 nM.
For `Cn1c(=O)cc(Nc2ccc(I)cc2F)c2c(=O)n(C3CC3)c(=O)n(-c3ccccc3)c21`, in that order: 13 nM and 1.5 nM.
For the molecule `Cc1ccc(NC(=O)c2cc(C(C)(C)C)on2)cc1/C=C/n1cnc2c(NC3CC3)ncnc21`, in series [2], the IC50 was 15500 nM.
Regarding `COc1cc2nccc(Nc3ccc(NC(=S)NC(=O)Cc4ccccc4)cc3F)c2cc1OC`, the values for the IC50 (in the series with K562; in series [3]) were 20 nM and 121 nM, respectively.
In the case of `C=CC(=O)Nc1cc(Nc2ncc(Cl)c(-c3cnn4ccccc34)n2)c(OC)cc1C1CC(N(C)C)C1` (centres undefined), the IC50 in series [4] was determined as 4 nM; in the series with PC-9 [5] it was 21 nM; in series [8], 4000 nM. For the same molecule, the results for the GI50 with NCI-H1975, in the series on PC-9 [6] and in the series with Calu-3 were 17 nM, 19 nM and 846 nM, respectively. The solubility in series [7] was 43 µM (≈ 22.3 µg/mL).
In turn, `Cc1ccc(NC(=O)c2cc(C(F)(F)F)ccn2)cc1C#Cn1cnc2c(NC3CC3)ncnc21` had an IC50 in series [2] of 524 nM.
`Cn1c(Nc2ccccc2)c2c(=O)n(C3CC3)c(=O)n(-c3ccc(Br)cc3)c2cc1=O`: the IC50 was < 3000 nM in the series on ACHN and > 1000 nM with HT-29 [1].
In the case of `COc1cc(-c2ccc3[nH]nc(/C=C/c4ccc(OC)c(OC)c4)c3c2)ccc1O`, the half-maximal inhibitory concentration (IC50) at 72 h in series [9] came out at 18 nM. In series [10], this molecule displayed an AUC(0-inf) of 300 ng·h/mL.
With `COc1cc(/C=C/c2n[nH]c3ccccc23)ccc1O`, in [11], inhibition was half-maximal at 1900 nM (IC50).
In turn, `Cc1ccc(NC(=O)c2cc(C(F)(F)F)ccn2)cc1/C=C/n1cnc2c(NC3CC3)ncnc21` returned an IC50 in series [2] of 14100 nM.
In series [12], `Cc1ccc(NC(=O)c2cc(C(C)(C)C)on2)cc1C#Cn1cnc2c(NC3CC3)ncnc21` gave an IC50 of 359 nM.
Consider `Cc1c[nH]c(/C=C2\C(=O)Nc3ccccc32)c1CCC(=O)O`, for which the figures for the IC50 in series [13] and in [14] were 400 nM and 60900 nM, respectively.
`COc1cc(Nc2c(C#N)cnc3cc(OCCCN4CCN(C)CC4)c(OC)cc23)c(Cl)cc1Cl` [BOSUTINIB]: the inhibition in vivo at 25 mg/kg with HT-29 [15] worked out at 44%. In addition, the inhibition in vivo at 50 mg/kg with HT-29 [16] was found to be 35%.
Regarding `COc1cc(/C=C/c2cc(/C=C/c3ccc(O)c(OC)c3)[nH]n2)ccc1O` [CURCUMIN PYRAZOLE], the Ki in [17] stood at 5100 nM.
As to `Cc1nc(Nc2ncc(C(=O)Nc3c(C)cccc3Cl)s2)cc(N2CCN(CCO)CC2)n1` [DASATINIB ANHYDROUS], in [18], the Vd worked out at 6.3 L/kg. The molecule further yielded a clearance in [19] of 26.4 mL/min/kg. In series [20], this molecule yielded a bioavailability of 27%.
Take `COc1cc2nccc(Oc3ccc(NC(=O)NC4CC4)c(Cl)c3)c2cc1C(N)=O` [LENVATINIB]: the IC50 in [21] is 3.4 nM.
`COc1cc2/c(=N/c3ccc(Br)cc3F)nc[nH]c2cc1OCC1CCN(C)CC1` [VANDETANIB]: the Activity in the series with Calu-6 [22] is 79%. The molecule also gave a solubility at 24 h in series [23] of 330 µM (≈ 157 µg/mL). This molecule showed a half-life in [24] of 15 h. Further, the bioavailability in [25] was > 50%. Besides, the inhibition in vivo at 50 mg/kg in the series on Calu-6 [26] came to 67%. In addition, the inhibition in vivo at 25 mg/kg in the series with Calu-6 [27] came to 51%. For the same molecule, the inhibition in vivo at 12.5 mg/kg with Calu-6 [28] turned out to be 36%.
For the molecule `COc1cc2c(Nc3ccc(Br)cc3F)ncnc2cc1OCCn1ccnn1` [ZD-4190 FREE BASE], the IC50 in [29] came to 50 nM. Also, the Activity with Calu-6 [22] is recorded as 75%. Moreover, the half-life in series [30] was 1.3 h; in series [32], 1.1 h. Also, the results for the bioavailability in [31] and in series [33] were > 80% and < 5%, respectively.
